Reference: patent publication US6960300B2, “Process for preparing water soluble diterpenes and their applications” (Sami Labs Limited, priority 2003, dated 2005)
In brackets after ≈: the same amount, converted by molar mass.

Columns and labels:
[1] = Determination of the aqueous solubility of Forskolin (intrinsic solubility, HPLC); type: physicochemical
Description: Determination of the aqueous solubility of Forskolin. Forskolin (300 mg) was dried at 105° C. for 6 hours. Dried Forskolin 200 mg was stirred with 100 ml water for 48 hours for the determination of intrinsic solubility at ambient temperatureResulting solution was filtered through 0.45 μm nylon filter and analyzed for the content of Forskolin by HPLC.

[2] = Solubility of Forskolin / Isoforskolin in water containing cyclodextrin (HPLC of filtered solution); type: physicochemical
Description: To solubilize Forskolin using cyclodextrins, the chosen cyclodextrin and Forskolin are mixed in water in specific proportions. The aqueous solution is filtered to remove any undissoved particles to obtain a clear aqueous solution of Forskolin in water.
Forskolin (98.5% assay, 25 mg) was added to 1 ml water containing in the dissolved state 500 mg Hydroxy propyl β cyclodextrin, HPBCD, (˜50%) Suspension was agitated at 75 RPM in an isothermal shaker for 60 hours at temperature ˜30° C.
Forskolin (98.5% assay, 50 mg) was added to 1 ml water containing 500 mg Hydroxy propyl γ-cyclodextrin in the dissolved state. (HPGCD) (˜50%). Suspension was agitated at 75 RPM in an isothermal shaker for 60 hours at temperature ˜30° C.
Experiments were performed by “changing” the crystallinity of Forskolin by recrystallizing from methylene chloride and from ethyl acetate. Resulting “amorphous” Forskolin was used for complexation with Hydroxyropyl γ-cyclodextrin HPGCD. Forskolin (29.3 mg) recrystallized with methylene dichloride (Forskolin assay 99.0%) was added to 3 ml water containing 1.5 gram Hydroxy propyl γ-cyclodextrin, HPGCD (˜50%). Suspension was agitated at 75 RPM in an isothermal shaker for 160 hour at temperature 30° C.
Forskolin (30.3 mg) recrystallized with ethyl acetate (Forskolin assay 98.8%) was added to 3 ml water containing 1.5 gram Hydroxy propyl γ-cyclodextrin, HPGCD (˜50%). Suspension was agitated at 75 RPM in an isothermal shaker for 160 hour at temperature 30° C.
Forskolin (98.5% assay, 330 mg) was added to 10 ml water containing 4 g of RAMEBCD (˜40%). Suspension was agitated at 75 RPM in an isothermal shaker for 40 hours at temperature 30° C.
Solubility of Forskolin in water was determined at the different concentrations of RAMEBCD ranging from 5 to 66%.
A typical aqueous formulation of Forskolin with a cyclodextrin is prepared as follows, RAMEBCD, being used as the example of cyclodextrin RAMEBCD (100 g) is taken in a one liter flask with mechanical or magnetic stirring facility. Forskolin (5.5 g) was charged into the flask. Water (400 ml) is charged to the flask and the contents were agitated at room temperature. A clear solution is obtained. If any undissolved Forskolin particles are seen, they are resuspended and stirred. Benzalkonium chloride (50 mg) and Disodium EDTA (500 mg) are added and dissolved in the flask. The pH of the contents could be adjusted to the desired range with the help of 0.1N sodium hydroxide. (usually pH range 3.5 to 7.5). Calculated amount of sodium chloride solution is added to maintain the osmolarity of the solution equivalent to that of 0.9% sodium chloride. The total volume of the solution is made up to 500 ml after sterile filtration. A solution thus prepared has approximately 1% of Forskolin in the dissolved state. Other cyclodextrins also could be used and depending on the cyclodextrin used, the dissolved content of Forskolin in water differed.
Isoforskolin also could be used in place of Forskolin. In one preparation, Isoforskolin (50 mg) was suspended in water containing a suitable amount of a cyclodextrin, for example, R AMEBCD (20 g) in about 100 ml water.

[3] = Dissolution in water of Forskolin-RAMEBCD residue obtained by evaporating acetone; type: physicochemical; conditions: Forskolin 50 mg + RAMEBCD 1 gram from acetone, residue in 5 ml water
Description: Alternatively, the cyclodextrin and Forskolin in certain proportions are dissolved in a suitable solvent such as ethanol or acetone or ethyl acetate. The solvent is removed to leave behind a white powder. Such powder freely dissolves in water as the examples will illustrate. Further, additives to the aqueous solution of Forskolin can also be added. These additives are usually used for maintaining sterility, pH maintenance, maintenance of osmolarity etc.
Forskolin (50 mg) was dissolved in 5 ml acetone, and 1 gram of RAMEBCD was dissolved in 5 ml acetone separately. Both the solutions were mixed together and solvent acetone was evaporated under reduced pressure. Residue was dried and dissolved in 5 ml water. This residue dissolved very easily within 1 hour of stirring forming a clear colorless solution.

[4] = system: Intraocular pressure (IOP), ocular hypertension; assay: Anti-glaucoma activity: intraocular pressure (IOP) in rabbits with betamethasone-induced ocular hypertension, non-contact tonometer; type: in vivo, Albino rabbit (New Zealand strain); conditions: for IOP Readings, right eye (treated): average of 6 determinations
From the text: An illustrative example of the biological activity of the preparation is presented. The anti-glaucoma activity of the forskolin composition was studied in albino rabbits. A 1% solution of Forskolin in water as described in example 8 was used for the experiments
Study design: Animal model: Albino rabbit Number of groups: 4 Number of animals in each group: 6 in treatment group and 2 in control group
Materials and methods: Six albino rabbits of New Zealand strain, of both sexes, weighing […] were chosen. The rabbits were housed in clean and well-ventilated open space. Each rabbit was fed with standard diet daily and water was administered ad libitum throughout the study.
Ocular hypertension was induced by the method reported by Bonomi et al (Invest Ophthalmol. 1976 September; 15(9):781-4.) The rabbits were given 0.3 ml subconjunctival injection of Betnesol containing betamethasone sodium 4 mg/ml, every day to each eye for a period of three weeks (the Intraocular pressure (IOP) at third week was maximum as per literature). Local anesthetic propracaine eye drops were used prior to subconjunctival injections.
In each rabbit the left eye was kept as control for glaucoma and the right eye was treated for glaucoma using Forskolin, Timolol, and the placebo.
For each treatment, the IOP readings were measured at intervals of 30 minutes up to 210 minutes using the non-contact tonometer (NCT).

[5] = polyvinylpyrrolidone and polyethyleneglycol-glyceryl tririicinoleate, U.S. Pat. No. 6,346,273; cited from earlier work
[6] = 25° C.; cited from earlier work

C=C[C@@]1(C)CC(=O)[C@]2(O)[C@@]3(C)[C@@H](O)CCC(C)(C)[C@@H]3[C@H](O)[C@H](OC(C)=O)[C@@]2(C)O1 [Forskolin]
Concentration of Forskolin solution in water in the absence of cyclodextrin ([1]; no cyclodextrin): about 0.001%
Content of Forskolin by HPLC (intrinsic solubility in water) ([1]; stirred 48 hours, ambient temperature, 0.45 μm filtered): 0.001 % w/v
solubility at 48 h ([1]; thermodynamic from solid, water, stirred 48 hours, ambient temperature, 0.45 μm filtered, read-out: Content of Forskolin by HPLC (intrinsic solubility in water)): 10 µg/mL (≈ 24.4 µM)
% Forskolin w/v (solubility in water) ([2]; 5% RAMEBCD): 0.09 % w/v
% Forskolin w/v (solubility in water) ([2]; 10% RAMEBCD): 0.272 % w/v
% Forskolin w/v (solubility in water) ([2]; 15% RAMEBCD): 0.767 % w/v
% Forskolin w/v (solubility in water) ([2]; 20% RAMEBCD): 1.15 % w/v
% Forskolin w/v (solubility in water) ([2]; 40% RAMEBCD): 2.746 % w/v
% Forskolin w/v (solubility in water) ([2]; 53.28% RAMEBCD): 4.165 % w/v
% Forskolin w/v (solubility in water) ([2]; 66.6% RAMEBCD): 5.029 % w/v
Forskolin in the dissolved state in the aqueous formulation ([2]; Example 8 formulation: RAMEBCD 100 g, Forskolin 5.5 g, made up to 500 ml, room temperature): approximately 1%
Time of stirring for the residue to dissolve in water forming a clear colorless solution [3]: ≤ 1 h
Anti-glaucoma activity (conclusion) ([4]; 1% solution of Forskolin in water as in example 8): anti-glaucoma activity comparable to Timolol
IOP Readings, right eye (treated) ([4]; time 0 mins): 14 mmHg
IOP Readings, right eye (treated) ([4]; time 30 mins): 7 mmHg
IOP Readings, right eye (treated) ([4]; time 60 mins): 6.5 mmHg
IOP Readings, right eye (treated) ([4]; time 90 mins): 4.5 mmHg
IOP Readings, right eye (treated) ([4]; time 120 mins): 5 mmHg
IOP Readings, right eye (treated) ([4]; time 150 mins): 6 mmHg
IOP Readings, right eye (treated) ([4]; time 180 mins): 7 mmHg
IOP Readings, right eye (treated) ([4]; time 210 mins): 7.5 mmHg
Maximum solubility of Forskolin achieved [5]: 0.2%

C=C[C@@]1(C)CC(=O)[C@@]2(O)[C@](C)(O1)[C@@H](O)[C@@H](OC(C)=O)C1C(C)(C)CC[C@H](O)[C@@]12C (some centres unmarked) [Isoforskolin]
Isoforskolin present in filtered solution by HPLC ([2]; RAMEBCD (20 g) in about 100 ml water, room temperature): approximately 0.5%

CC(C)(C)NC[C@H](O)COc1nsnc1N1CCOCC1 [Timolol]
IOP Readings, right eye (treated) ([4]; time 0 mins): 13 mmHg
IOP Readings, right eye (treated) ([4]; time 30 mins): 8 mmHg
IOP Readings, right eye (treated) ([4]; time 60 mins): 7 mmHg
IOP Readings, right eye (treated) ([4]; time 90 mins): 5 mmHg
IOP Readings, right eye (treated) ([4]; time 120 mins): 4 mmHg
IOP Readings, right eye (treated) ([4]; time 150 mins): 3.5 mmHg
IOP Readings, right eye (treated) ([4]; time 180 mins): 4.5 mmHg
IOP Readings, right eye (treated) ([4]; time 210 mins): 6 mmHg

OC[C@H]1O[C@@H]2O[C@H]3[C@H](O)[C@@H](O)[C@@H](O[C@H]4[C@H](O)[C@@H](O)[C@@H](O[C@H]5[C@H](O)[C@@H](O)[C@@H](O[C@H]6[C@H](O)[C@@H](O)[C@@H](O[C@H]7[C@H](O)[C@@H](O)[C@@H](O[C@H]8[C@H](O)[C@@H](O)[C@@H](O[C@H]9[C@H](O)[C@@H](O)[C@@H](O[C@H]%10[C@H](O)[C@@H](O)[C@@H](O[C@H]1[C@H](O)[C@H]2O)O[C@@H]%10CO)O[C@@H]9CO)O[C@@H]8CO)O[C@@H]7CO)O[C@@H]6CO)O[C@@H]5CO)O[C@@H]4CO)O[C@@H]3CO [δ-cyclodextrin]
Water solubility [6]: 8.19 g/100 ml
